Results reported in patent US5444151A, “Platelet derived growth factor antagonists” (Ludwig Institute for Cancer Research, priority 1992, dated 1995).
“Also recorded” adds a separate entry of the source. Where two headings read alike, the source gives them in different places. Numbered stars: 1 amine (or outer) side, 2 acyl side, 3 side chain; on linkers, the order of the positions; unused ones are H or OH. Square brackets hold non-standard residues; d marks the D form. Ends that are not written are not given here. Peptide text beside a SMILES is read from it. X2 = O=C([C@H](Cc1c(Sc2ccccc2[N+](=O)[O-])[nH]c2ccccc12)N[*:1])[*:2]

Columns and labels:
[1] = biological target: T1, PDGF-β receptor (Homo sapiens, UniProt P09619); test: Competition with 125I-PDGF-BB for binding to AG1518 fibroblasts (α receptor down regulated by PDGF-AA preincubation)
T1 construct: cultures of human foreskin fibroblast cell line AG1518; endogenous in cells; host or cells: AG1518 human foreskin fibroblasts (Human Mutant Cell Repository)
Experimental: (§1) In order to test for receptor binding, cultures of human foreskin fibroblast cell line AG1518 (obtained from the Human Mutant Cell Repository), were grown to confluence in Ham's F-12 medium containing 10% newborn calf serum. Those cells which were to be used in analysis of PDGF-β receptor binding were preincubated for 60 minutes at 37° C. in 0.5 ml/well of Ham's F-12 medium, supplemented with 1 mg/ml of bovine serum albumin (BSA), and 50 ng/ml of PDGF-AA. This combination down regulates PDGF-α receptor, as per Claesson-Welsh et al., J. Biol. Chem. 264: 1742-1747 (1989).
(§2) Cells were prepared for receptor binding analyses by washing with ice cold binding buffer (phosphate buffered saline with 0.9 mM CaCl2, 0.49 mM MgSO4 and 1 mg/ml BSA). The cells were then incubated on ice for 90 minutes with different concentrations (0-100 ug/ml) of synthetic peptides (listed in Table 1, infra), in 0.5 ml of binding buffer per well. […] The labelled ligand was added and then incubated for 60 minutes at 0° C. after which the cells were washed five times with ice cold binding buffer. The washed cells were then lysed for 60 minutes at room temperature in a lysis buffer (1% Triton X-100, 10% glycerol, 20 mM Tris-HCl, pH 7.5). Solubilized radioactivity was determined in a gamma counter. Competing activities of synthetic peptides were compared to standard curves, using unlabelled ligand.
In Table 2, "+++" means <30 μM; "++" from 30-60 μM; "+" 60-150 μM; and "-", >150 μM.

[2] = system: human foreskin fibroblasts; test: Ligand stimulated [3H]thymidine incorporation; assay type: cell-based; conditions: for [3H]thymidine incorporation, ligand alone: no peptide (unstimulated control 483 cpm); for [3H]thymidine incorporation, ligand alone / [3H]thymidine incorporation, Control / [3H]thymidine incorporation, EGF / [3H]thymidine incorporation, PDGF-AA / [3H]thymidine incorporation, PDGF-BB: mean of duplicates; for Effect on ligand stimulated [3H]thymidine incorporation (in words): PDGF-AA, PDGF-BB or EGF stimulation; for [3H]thymidine incorporation, Control / [3H]thymidine incorporation, EGF / [3H]thymidine incorporation, PDGF-AA / [3H]thymidine incorporation, PDGF-BB: peptide present; for [3H]thymidine incorporation, Control: no ligand; for [3H]thymidine incorporation, EGF: stimulated with EGF; for [3H]thymidine incorporation, PDGF-AA: stimulated with PDGF-AA; for [3H]thymidine incorporation, PDGF-BB: stimulated with PDGF-BB
Text: The possible role of peptide 16T as an antagonist for PDGF activity in vivo was investigated. Following the methodology of Betsholtz et al., J. Cell Physiol 118: 203-210 (1984), the disclosure of which is incorporated by reference, [^3 H] thymidine incorporation by human fibroblasts in the presence of various peptides was studied.

[3] = biological target: T2, PDGF-β receptor (Sus scrofa, UniProt A0A8W4FFG6); test: Autophosphorylation and dimerization of partially purified PDGF-β receptor; assay type: biochemical, porcine
T2 construct: from Triton X-100 solubilized porcine uterus membranes and purified up to the Mono-Q chromatography step; from tissue; host or cells: porcine uterus membranes
Experimental: A preparation of PDGF-β receptor, from Triton X-100 solubilized porcine uterus membranes and purified up to the Mono-Q chromatography step of Ronnstrand et al., J. Biol. Chem. 262: 2929-2932 (1987), was made, and the autophosphorylation assay described therein was carried out.
Approximately 100 ng of the receptor was incubated for 5 minutes at 0° C. with peptide 16T or peptide 20, at different concentrations. […] Four ul of 150 μM [^32 P]ATP (containing 5×10^6 cpm of radioactivity) was added, followed by an additional 10 minutes of incubation at 0° C. Incorporation of radioactivity was terminated by adding 5 μl of 15 mM unlabelled ATP and 5 μl of 40 mM phenylphosphate. Samples were cross linked by incubating with 0.5 mM DSS (12.5 mM, in dimethyl sulfoxide) for 30 minutes at room temperature. The cross linking reaction was blocked by adding 50 mM methylammonium chloride, 20 mM Hepes, pH 7.4.

[4] = biological target: T3, PDGF-α receptor (Homo sapiens, UniProt P16234); test: Competition with 125I-PDGF-AA for binding to AG1518 fibroblasts; conditions: for Receptor competing activity, PDGF-AA binding (in words): AG1518 cells
T3 construct: cultures of human foreskin fibroblast cell line AG1518; endogenous in cells; host or cells: AG1518 human foreskin fibroblasts
Experimental: as §1, §2

[5] = biological target: T4, EGF receptor (Homo sapiens, UniProt P00533); test: Competition with 125I-EGF for binding to AG1518 fibroblasts
T4 construct: cultures of human foreskin fibroblast cell line AG1518; endogenous in cells; host or cells: human foreskin fibroblasts (AG1518)
Experimental: as §1, §2

[6] = system: PDGF receptors; test: PDGF-BB induced receptor dimerization and autophosphorylation in intact cells; assay type: cell-based, human; conditions: PDGF-BB 300 ng/ml, intact fibroblasts
Experimental: (§3) Confluent human foreskin fibroblast cells were used (25 cm^2 dishes of cultures). The cells were washed twice with binding buffer, as described supra, with 1 mg/ml BSA added thereto. This was followed by 90 minutes of incubation with one of synthetic peptides 16, […], 20 and […] on ice. […] A dimerization assay was then carried out, basically following Eriksson et al., Growth Factors 6: 1-14 (1992). Essentially, receptors were cross linked for 20 minutes at room temperature in 1 mM BS^3 (Bis(sulfosuccinimidyl)suberate) in lysis buffer (0.5% Triton X-100, 0.5% deoxycholate, […], pH 7.4, 150 mM NaCl, 10 mM EDTA, 1 mM PMSF (phenylmethylsulfonyl fluoride), 1% Trasylol (aprotinin), 100 μM ortovandat, a phosphatase inhibitor). Cross linking was quenched by adding 70 mM methylammonium chloride for 10 minutes. Samples were then subjected to SDS gel electrophoresis in 4% slab gels, followed by electroblotting on to nitrocellulose membranes. The blocked membranes were incubated for two hours with affinity purified phosphotyrosine antibodies (Ek et al., J. Biol. Chem. 259: 1145-11152 (1984)), followed by three washes. Blots were then incubated for 45 minutes with peroxidase conjugated, affinity purified swine antirabbit IgG immunoglobulin. After an additional three washes, complexes were visualized using the ECL developing system.

[7] = biological target: T4, EGF receptor; test: EGF induced receptor dimerization and autophosphorylation in intact cells; assay type: cell-based; conditions: EGF 300 ng/ml, intact fibroblasts
Experimental: as §3

[8] = read-out: Inhibitory Activity: ability to compete with PDGF-BB for binding (peptide needed to decrease binding by 50%), AG1518 cells, 0° C., asterisk = homogeneous peptide, otherwise crude
[9] = AG1518 cells, 0° C., asterisk = homogeneous peptide, otherwise crude
[10] = AG1518 cells, competing activity

T3 sequence (P16234 24-1089): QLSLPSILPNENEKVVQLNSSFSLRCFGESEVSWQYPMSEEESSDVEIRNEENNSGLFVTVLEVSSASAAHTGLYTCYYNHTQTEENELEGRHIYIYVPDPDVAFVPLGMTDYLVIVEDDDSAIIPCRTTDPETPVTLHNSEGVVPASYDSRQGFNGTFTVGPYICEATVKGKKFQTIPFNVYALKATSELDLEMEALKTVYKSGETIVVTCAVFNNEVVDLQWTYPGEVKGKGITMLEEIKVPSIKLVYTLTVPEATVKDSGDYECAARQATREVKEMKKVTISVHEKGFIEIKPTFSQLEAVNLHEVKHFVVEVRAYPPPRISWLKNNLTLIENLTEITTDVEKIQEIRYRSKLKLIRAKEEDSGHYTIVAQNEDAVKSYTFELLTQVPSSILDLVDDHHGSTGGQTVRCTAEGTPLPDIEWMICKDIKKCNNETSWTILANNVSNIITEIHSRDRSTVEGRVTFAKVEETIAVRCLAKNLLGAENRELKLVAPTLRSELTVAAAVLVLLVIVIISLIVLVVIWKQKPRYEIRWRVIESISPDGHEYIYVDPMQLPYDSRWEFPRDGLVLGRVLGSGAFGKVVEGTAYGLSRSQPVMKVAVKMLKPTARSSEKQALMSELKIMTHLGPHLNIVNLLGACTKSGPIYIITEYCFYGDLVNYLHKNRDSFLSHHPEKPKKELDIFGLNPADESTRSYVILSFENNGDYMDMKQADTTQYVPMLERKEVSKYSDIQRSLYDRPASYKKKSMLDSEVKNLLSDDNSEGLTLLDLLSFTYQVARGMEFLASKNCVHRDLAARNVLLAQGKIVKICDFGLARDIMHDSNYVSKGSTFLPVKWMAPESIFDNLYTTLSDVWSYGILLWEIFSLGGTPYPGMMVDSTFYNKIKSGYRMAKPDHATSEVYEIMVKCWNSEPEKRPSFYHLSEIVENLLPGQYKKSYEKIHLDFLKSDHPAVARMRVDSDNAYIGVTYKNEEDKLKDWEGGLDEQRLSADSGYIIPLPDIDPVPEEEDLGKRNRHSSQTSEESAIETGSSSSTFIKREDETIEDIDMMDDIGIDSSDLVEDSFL
T1 sequence (P09619 33-1106): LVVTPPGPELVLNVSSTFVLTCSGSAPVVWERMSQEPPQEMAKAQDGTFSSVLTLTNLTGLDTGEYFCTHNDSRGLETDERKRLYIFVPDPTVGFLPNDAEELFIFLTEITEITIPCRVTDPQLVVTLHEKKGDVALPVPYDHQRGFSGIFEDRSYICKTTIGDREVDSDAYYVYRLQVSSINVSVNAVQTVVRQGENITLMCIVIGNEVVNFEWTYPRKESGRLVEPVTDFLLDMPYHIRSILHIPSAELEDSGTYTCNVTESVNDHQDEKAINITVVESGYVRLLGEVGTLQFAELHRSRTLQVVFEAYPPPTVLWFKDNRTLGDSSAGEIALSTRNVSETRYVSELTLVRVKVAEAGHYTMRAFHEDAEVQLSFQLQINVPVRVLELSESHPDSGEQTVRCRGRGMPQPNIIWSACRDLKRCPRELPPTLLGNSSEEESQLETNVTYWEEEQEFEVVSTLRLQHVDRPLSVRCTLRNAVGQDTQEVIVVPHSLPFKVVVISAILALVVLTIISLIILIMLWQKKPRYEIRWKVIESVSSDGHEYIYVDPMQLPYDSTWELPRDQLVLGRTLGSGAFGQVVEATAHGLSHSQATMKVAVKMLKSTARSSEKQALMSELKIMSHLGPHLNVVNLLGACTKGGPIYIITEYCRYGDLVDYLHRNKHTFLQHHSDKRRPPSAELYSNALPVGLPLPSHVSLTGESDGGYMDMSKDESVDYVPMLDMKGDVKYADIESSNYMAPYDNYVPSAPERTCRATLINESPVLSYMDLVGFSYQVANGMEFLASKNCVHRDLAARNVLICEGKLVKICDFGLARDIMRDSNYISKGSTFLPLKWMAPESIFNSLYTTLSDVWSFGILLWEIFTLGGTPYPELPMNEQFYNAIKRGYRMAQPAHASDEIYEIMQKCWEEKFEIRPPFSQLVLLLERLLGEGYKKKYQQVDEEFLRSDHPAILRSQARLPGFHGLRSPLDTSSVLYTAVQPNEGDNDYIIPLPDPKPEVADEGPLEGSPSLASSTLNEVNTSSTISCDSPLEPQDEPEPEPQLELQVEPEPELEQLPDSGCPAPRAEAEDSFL
T4 sequence (P00533 25-1210): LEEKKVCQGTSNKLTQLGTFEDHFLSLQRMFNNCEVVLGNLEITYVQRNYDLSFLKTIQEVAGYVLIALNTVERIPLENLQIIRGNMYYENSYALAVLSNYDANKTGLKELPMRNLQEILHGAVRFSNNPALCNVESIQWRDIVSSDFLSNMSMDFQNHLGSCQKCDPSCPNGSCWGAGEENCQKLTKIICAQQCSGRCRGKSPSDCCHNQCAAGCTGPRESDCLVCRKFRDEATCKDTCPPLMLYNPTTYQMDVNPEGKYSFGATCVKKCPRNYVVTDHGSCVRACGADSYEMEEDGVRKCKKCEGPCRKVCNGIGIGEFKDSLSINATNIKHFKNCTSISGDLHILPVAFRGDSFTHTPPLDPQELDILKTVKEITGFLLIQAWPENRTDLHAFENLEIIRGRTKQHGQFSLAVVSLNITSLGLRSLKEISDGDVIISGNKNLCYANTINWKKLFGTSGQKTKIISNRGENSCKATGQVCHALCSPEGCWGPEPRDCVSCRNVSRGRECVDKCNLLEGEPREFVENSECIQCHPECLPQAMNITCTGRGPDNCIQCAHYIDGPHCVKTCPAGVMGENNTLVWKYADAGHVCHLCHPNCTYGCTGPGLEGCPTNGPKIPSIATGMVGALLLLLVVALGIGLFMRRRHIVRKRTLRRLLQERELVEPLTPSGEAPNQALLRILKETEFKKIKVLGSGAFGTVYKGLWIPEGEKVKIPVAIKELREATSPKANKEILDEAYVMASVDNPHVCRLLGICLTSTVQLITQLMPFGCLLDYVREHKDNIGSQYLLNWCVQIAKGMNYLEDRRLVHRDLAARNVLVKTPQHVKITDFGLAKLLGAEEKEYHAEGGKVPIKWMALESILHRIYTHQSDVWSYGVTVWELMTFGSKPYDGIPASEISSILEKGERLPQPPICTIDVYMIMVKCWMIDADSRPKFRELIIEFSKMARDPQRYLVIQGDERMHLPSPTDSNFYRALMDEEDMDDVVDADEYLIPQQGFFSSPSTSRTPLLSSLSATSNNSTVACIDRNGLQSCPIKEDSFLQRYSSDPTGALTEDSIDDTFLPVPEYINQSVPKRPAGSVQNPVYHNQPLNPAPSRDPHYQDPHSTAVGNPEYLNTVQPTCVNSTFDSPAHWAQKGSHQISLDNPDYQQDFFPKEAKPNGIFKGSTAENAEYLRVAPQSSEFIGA
T2 sequence (A0A8W4FFG6 32-1102): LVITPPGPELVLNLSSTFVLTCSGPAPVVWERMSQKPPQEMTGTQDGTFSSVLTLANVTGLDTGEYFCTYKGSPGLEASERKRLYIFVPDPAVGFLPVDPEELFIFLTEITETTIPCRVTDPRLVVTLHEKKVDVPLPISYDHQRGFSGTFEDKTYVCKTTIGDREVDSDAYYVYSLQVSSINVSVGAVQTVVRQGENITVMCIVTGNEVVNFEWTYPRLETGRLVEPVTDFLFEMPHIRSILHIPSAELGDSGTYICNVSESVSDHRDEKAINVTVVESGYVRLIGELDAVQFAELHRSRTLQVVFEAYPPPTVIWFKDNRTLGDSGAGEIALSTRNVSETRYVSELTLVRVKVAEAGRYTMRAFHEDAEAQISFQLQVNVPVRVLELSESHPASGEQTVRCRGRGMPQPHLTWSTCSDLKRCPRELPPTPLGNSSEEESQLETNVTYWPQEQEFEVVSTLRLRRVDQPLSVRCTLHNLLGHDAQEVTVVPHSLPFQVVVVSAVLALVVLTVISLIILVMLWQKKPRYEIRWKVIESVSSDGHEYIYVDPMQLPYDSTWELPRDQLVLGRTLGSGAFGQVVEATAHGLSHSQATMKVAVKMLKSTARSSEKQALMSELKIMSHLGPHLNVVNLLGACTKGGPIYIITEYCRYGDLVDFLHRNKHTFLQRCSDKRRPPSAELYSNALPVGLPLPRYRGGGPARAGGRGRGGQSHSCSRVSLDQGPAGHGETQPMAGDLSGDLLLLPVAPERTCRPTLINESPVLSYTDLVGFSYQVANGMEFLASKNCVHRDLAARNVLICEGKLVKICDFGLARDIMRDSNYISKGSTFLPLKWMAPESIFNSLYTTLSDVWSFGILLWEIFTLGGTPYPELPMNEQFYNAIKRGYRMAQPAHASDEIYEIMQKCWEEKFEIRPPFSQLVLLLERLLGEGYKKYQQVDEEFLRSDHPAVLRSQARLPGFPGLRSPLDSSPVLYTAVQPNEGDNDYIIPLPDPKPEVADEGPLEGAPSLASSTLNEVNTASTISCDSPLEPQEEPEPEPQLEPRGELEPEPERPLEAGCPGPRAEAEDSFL

Q: With CRPTQVQLRPVQVRKIEIVRKKP [Peptide 2] as the molecule, how does the IC50 [1, 8] read?
A: > 150 µM

Q: With “PDGF-AA: platelet derived growth factor A chain homodimer” as the molecule, how does the “[3H]thymidine incorporation, ligand alone” value [2] read?
A: 677 cpm

Q: What about the “Stimulation of [3H]thymidine incorporation by ligand” value ([2]; no peptide, versus unstimulated control) of the same molecule?
A: lower stimulation

Q: Which results are given for ANFLVWEIVRKKP [Peptide 16]?
A: Effect on ligand stimulated [3H]thymidine incorporation (in words) [2]: did inhibit PDGF-AA and PDGF-BB induced mitogenicity, but also EGF induced mitogenicity; [3H]thymidine incorporation, Control [2]: 241 cpm; [3H]thymidine incorporation, EGF [2]: 216 cpm; [3H]thymidine incorporation, PDGF-AA [2]: 242 cpm; [3H]thymidine incorporation, PDGF-BB [2]: 281 cpm; Amount of peptide giving complete inhibition of dimerization and autophosphorylation ([3]; nearly complete for 16T, complete for 16, about 100 ng receptor, 100 ng PDGF-BB, 40 ul): 20 µg; Effect on dimerization and autophosphorylation (in words) ([3]; peptide 20: concentrations up to 20 μg): intermediate effect; IC50 [1, 9]: < 30 µM; Receptor competing activity, PDGF-BB binding (in words) [1, 10]: maintained most of the receptor competing activity; also recorded: marginal effect; Receptor competing activity, PDGF-AA binding (in words) [4]: marginal effect; Receptor competing activity, PDGF-AA binding (in words) ([4]; listed as 16*): very low activity; Competition for binding of 125I-EGF to the EGF receptor (in words) [5]: none of peptides 16, 16T, 20 and 20T compete

Q: With “EGF: ligand of the EGF receptor, used as control growth factor” as the molecule, how does the “[3H]thymidine incorporation, ligand alone” value [2] read?
A: 2591 cpm

Q: For KIEIVRKKPIFKKATVTLEDHLASKC [Peptide 1], which IC50 [1, 8] is on record?
A: > 150 µM

Q: For CC[C@H](C)[C@H](NC(=O)[C@H](Cc1ccccc1)NC(=O)[C@H](C)NC(=O)[C@@H](N)CCC(=O)O)C(=O)N[C@@H](CCCCN)C(=O)N[C@@H](Cc1c(-c2ccc(SC)cc2)[nH]c2ccccc12)C(=O)N[C@@H](CC(C)C)C(=O)N[C@H](C(=O)N[C@@H](CCCNC(=N)N)C(=O)N[C@@H](CC(N)=O)C(=O)N[C@@H](CCCCN)C(=O)N[C@H](C(=O)N1CCC[C@H]1C(=O)O)C(C)C)C(C)C [*20T, reference compound], which “Effect on ligand stimulated [3H]thymidine incorporation (in words)” value [2] is on record?
A: some non specific inhibition activity

Q: What about the “[3H]thymidine incorporation, Control” value [2] of the same molecule?
A: 456 cpm

Q: And the “[3H]thymidine incorporation, EGF” value [2]?
A: 515 cpm

Q: And the “[3H]thymidine incorporation, PDGF-AA” value [2]?
A: 489 cpm

Q: What about the “[3H]thymidine incorporation, PDGF-BB” value [2] of the same molecule?
A: 836 cpm

Q: What about the “Effect on PDGF induced autophosphorylation and dimerization (in words)” value [6] of the same molecule?
A: no effect whatsoever

Q: And the “Receptor competing activity, PDGF-BB binding (in words)” value [1, 10]?
A: did not compete for binding

Q: What about the “Effect on EGF induced autophosphorylation and dimerization (in words)” value [7] of the same molecule?
A: no effect whatsoever

Q: And the “Receptor competing activity, PDGF-AA binding (in words)” value [4]?
A: did not compete for binding

Q: What about the “Competition for binding of 125I-EGF to the EGF receptor (in words)” value [5] of the same molecule?
A: none of peptides 16, 16T, 20 and 20T compete

Q: With WPPCVEVQLRPVQVRKIEIVRKKP [Peptide 8] as the molecule, how does the “Receptor competing activity, PDGF-BB binding (in words)” value [1, 10] read?
A: nearly devoid of activity

Q: What about the IC50 [1, 8] of the same molecule?
A: > 150 µM

Q: Which IC50 [1, 8] does the source give for “ANFLVWPPCVEVQLRPVQVRKIEIVRKKP [Peptide 7]” here?
A: < 30 µM

Q: What about the IC50 ([1]; β receptor, read-out: 50% competition for receptor binding) of the same molecule?
A: ~6 µM

Q: What about the IC50 ([4]; α receptor, read-out: 50% competition for receptor binding) of the same molecule?
A: ~6 µM

Q: Which results are given for CC[C@H](C)[C@H](NC(=O)[C@H](CCC(=O)O)NC(=O)[C@H](Cc1c(Sc2ccccc2[N+](=O)[O-])[nH]c2ccccc12)NC(=O)[C@@H](NC(=O)[C@H](CC(C)C)NC(=O)[C@H](Cc1ccccc1)NC(=O)[C@H](CC(N)=O)NC(=O)[C@H](C)N)C(C)C)C(=O)N[C@H](C(=O)N[C@@H](CCCNC(=N)N)C(=O)N[C@@H](CCCCN)C(=O)N[C@@H](CCCCN)C(=O)N1CCC[C@H]1C(=O)O)C(C)C [*16NPS] (H-ANFLV[X2]EIVRKKP-OH; N-terminus and C-terminus assumed)?
A: IC50 [1, 9]: < 30 µM; Receptor competing activity, PDGF-BB binding (in words) ([1]; AG1518 cells, general text statements on competing activity placed here, listed as 16 NPS): more active as an antagonist than peptide 16; Receptor competing activity, PDGF-BB binding (in words) ([1]; AG1518 cells, general text statements on competing activity placed here, listed as 16NPS): increased activity as an antagonist

Q: How did the IC50 [1, 9] turn out when EAFIKWLVRNKVP [*20, reference compound] was run?
A: > 150 µM
